Test results taken from patent US20240374558A1, “PREPARATION OF PHENE[…] […] STEREOISOMERS THEREOF AND PRECURSORS THEREOF” (priority 2022, published 2024).
pEC50, pIC50, pKi: −log10 of the molar value. Like-named read-outs stand apart in the source and are kept apart here.

Key:
[1] = target: T1, norepinephrine transporter (NET) (Rattus norvegicus, UniProt Q63380); test: Competition radioligand binding, [3H]Nisoxetine, brain synaptosome membranes; set-up: species or system rat (Sprague Dawley)
T1 construct: hippocampus plus overlying occipital cortex for norepinephrine transporter assays; from tissue
T1 sequence (Q63380 1-617): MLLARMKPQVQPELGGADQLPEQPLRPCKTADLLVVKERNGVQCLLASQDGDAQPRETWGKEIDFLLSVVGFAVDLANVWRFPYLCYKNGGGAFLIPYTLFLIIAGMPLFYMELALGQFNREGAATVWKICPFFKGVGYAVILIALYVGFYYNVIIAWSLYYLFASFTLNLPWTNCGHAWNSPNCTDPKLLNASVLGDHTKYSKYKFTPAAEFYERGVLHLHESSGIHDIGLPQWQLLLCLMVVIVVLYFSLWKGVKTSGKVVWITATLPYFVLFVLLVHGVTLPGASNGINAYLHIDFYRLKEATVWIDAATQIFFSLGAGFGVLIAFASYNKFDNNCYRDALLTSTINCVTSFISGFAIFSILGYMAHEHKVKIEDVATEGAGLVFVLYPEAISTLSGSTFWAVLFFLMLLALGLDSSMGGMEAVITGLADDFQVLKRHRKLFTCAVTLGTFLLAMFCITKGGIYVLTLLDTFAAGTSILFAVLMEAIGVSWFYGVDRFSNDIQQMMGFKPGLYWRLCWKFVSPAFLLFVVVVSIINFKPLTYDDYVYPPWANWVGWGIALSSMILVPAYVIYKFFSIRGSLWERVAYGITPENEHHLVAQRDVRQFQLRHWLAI
Source text: Rat brain (Sprague Dawley, 200-250 g) synaptosomes were isolated from midbrain and hindbrain for serotonin transporter assays, striatum for dopamine transporter assays, and hippocampus plus overlying occipital cortex for norepinephrine transporter assays. Radioligands used were: [^3H]Citalopram 81.4 Ci/mmol (PerkinElmer NET1039250UC; Lot No. 2960876). [3H]WIN35428 82.8 Ci/mmol (PerkinElmer NET1033250UC; Lot No. 2891473). [^3H]Nisoxetine 79.2 Ci/mmol (PerkinElmer NET1084250UC; Lot No. 2970324). Non-specific compounds used were: Citalopram (Tocris Bioscience 1427). JHW007 (Tocris Bioscience 4351). Nomifensine (Abcam abl46004). Test Compounds for the study were: racemic methylone HCl; (R)-methylone HCl; (S)-methylone HCl.
For membrane preparations, rat brains were dissected, tissue was added to ice-cold lysis buffer (50 mM Tris HCl; 5 mM MgCl2; 5 mM EDTA; protease inhibitor cocktail) and homogenized. […] A sample of the homogenate was analyzed for protein content using the MERCK® BCA assay. […]
Competition binding assays were carried out in 96-well polypropylene plates in a final volume of 250 μL per well. […] Filters were then dried under a warm air stream, sealed in polyethylene, scintillation cocktail added, and the radioactivity counted in a WALLAC® TriLux 1450 MicroBeta counter. […] Ki was subsequently calculated using the ChengPrusoff equation.

NET = NET (Rattus norvegicus, UniProt Q63380); test: NE release study; assay type: biochemical
NET, sequence (Q63380 1-617): as above

[2] = test system: rat forced swim test (FST); test: Rat forced swim test (FST); assay type: in vivo; conditions: 10 mg/kg, IP
Method: The forced swim test (FST) is a classic model to assess the antidepressant-like activity of compounds that has been in use for over 40 years (Porsolt et al. (1977) Nature 266:730-732; Detke et al. (1995) Psychopharmacology 121:66-72). […] A single dose of 5 mg/kg methylone reduces immobility by approximately 50% compared to vehicle-treated controls, whereas a 15 mg/kg dose reduces immobility by nearly 100%. Accompanying changes in climbing and/or swimming behavior reflect noradrenergic and serotonergic activities of methylone, respectively.
All FST studies are performed and scored by an experimenter blind to treatment group and according to standard protocols. Briefly, rats are placed in a circular plexiglass container filled with water. Water temperature is maintained at 22-25° C. and changed for every animal. Day 1 (Training) consists of a 15 min acclimation trial, and Day 2 (Testing, 24 h later) consists of the 5 min test. A time sampling procedure is employed where animals are observed every 5 seconds for the duration of the test session (60 counts or 5 minutes) and scored for immobility (defined as the failure to struggle), swimming (defined as a circular movement around the tank), or climbing (defined as an upwards escape behavior). Data are expressed as the percent of the testing session (e.g., the number of immobility counts divided by 60). A p-value less than 0.05 indicates statistical significance after typical statistical analyses (e.g., unpaired t-test or ANOVA).
To determine that the prodrug and/or enantiomer has an antidepressant-like effect and to compare it to methylone, rats are treated with each compound 30 min prior to testing. Additional tests are run 24, 72, 168 hours post-dose or longer. Effects on Fear Extinction in a Model of Post-Traumatic Stress Disorder (PTSD)
Racemic methylone (10 mg/kg, IP) has a maximal antidepressant-like effect in the rat forced swim test (FST), reducing immobility by nearly 100% compared to vehicle treated controls. […]

[3] = self-administration, healthy volunteers; Lourdes et al. 2021; cited from earlier work
[4] = Pharmacokinetics of methylone after a single IV, PO or IP administration (LC-MS/MS of plasma); assay type: in vivo, male Sprague Dawley rats
Method: The pharmacokinetic properties of methylone after a single administration intravenously (IV), intraperitoneally (IP), or by oral gavage (PO) in male Sprague Dawley rats has been determined using a liquid chromatography tandem mass spectrometry (LC-MS/MS) method that has been established and validated for methylone in the rat. Rats (n=3 per group) received a single dose of methylone: 5 mg/kg IV, 15 mg/kg IP, or 15 mg/kg PO.
To investigate whether the prodrug extends the half-life or alters other basic pharmacokinetic properties of methylone (e.g., Cmax or Tmax), rats are treated with each prodrug IV, IP, or PO. For each compound, three groups of rats are treated as follows: For group 1, a single dose of methylone is administered to 3 male Sprague-Dawley rats by IV bolus at 5 mg/kg. For group 2, a single dose of methylone is administered to 3 male Sprague-Dawley rats by oral gavage (PO) at 15 mg/kg. For group 3, a single dose of methylone is administered to 3 male Sprague-Dawley rats by IP at 15 mg/kg. For all groups, blood samples are collected from each animal at 0.083, 0.25, 0.5, 1, 2, 4, 8, 12, and 24 hours post-dose for the determination of plasma concentrations. The plasma concentrations are quantified by liquid chromatography tandem mass spectrometry (LC-MS/MS). The bioanalytical assay has been established and validated, providing a lower limit of quantification (LLOQ) of 1 ng/mL and an upper limit of quantification (ULOQ) of 3000 ng/mL for methylone. The plasma concentration-time data are analyzed using Phoenix WinNonlin (version 8.3) to characterize the PK properties of the analyte. The non-compartmental analysis model and the linear/log trapezoidal method are applied to calculating the PK parameters.

mouse model of PTSD = test: Fear extinction in a mouse model of PTSD; assay type: in vivo; conditions: 30 mg/kg, IP
Method: FIGS. 1A-1D: Methylone improves fear extinction recall in a mouse model of PTSD. (FIG. 1A) Schematic of experimental design. A single CS-US (tone-shock) pairing on day 1 was followed by 6 CS presentations in a novel context (context B). Methylone or saline vehicle was injected 30 min prior to extinction training on day 2. On day 3, the time spent freezing to the CS was quantified. […] (FIG. 1C) The time freezing before vs. during each of 6 cues on day 3 (to control for locomotor effects) are shown. There was a significant cue x drug interaction (F(5,130)=2.409, p<0.05). […] N=12 for methylone group (30 mg/kg, IP, orange diamonds) and N=16 for saline control group (black squares). *p<0.05
Effective PTSD treatments facilitate the disassociation between a traumatic memory and the patient's fear response, making cues for the traumatic memory evoke less of a fear response. This is modeled in the mouse fear extinction paradigm which takes place over 3 days. On day 1 (fear conditioning), mice are trained to acquire a “traumatic memory,” namely associating the conditioned stimulus (CS, tone) to the unconditioned stimulus (US, foot shock). On day 2 (extinction training), they are trained to forget the traumatic memory association by presenting the CS 6 times (with no US) in a novel environment. On day 3 (extinction recall), the mice are “asked” if that tone (CS) still elicits a fearful response, as measured by the time spent freezing when the tone is presented. Less time freezing means better extinction recall. Drugs that improve extinction recall reduce freezing time on day 3, and, therefore, show potential as a PTSD treatment.
Using these methods, prodrugs and/or enantiomers are administered to mice and tested for efficacy in the fear extinction model to evaluate their efficacy to treat PTSD and other memory disorders. Anxiolytic Effects in Other Behavioral Anxiety Models

open field test (OFT) [5] = test: Open field test (OFT); set-up: species or system rats; conditions: rat, in vivo
Method: Additional behavioral testing including the elevated plus maze (EPM) and thigmotaxis in the open field test (OFT) are used to assess the anxiolytic effects of methylone and its prodrugs in mice or rats. […] These models are described in greater detail below. Prodrugs are screened in these behaviors to the anxiolytic efficacy of each compound.
Compounds are screened for their effects on both parameters. Briefly, rodents are assessed in a 30 minute OFT using an automated activity monitoring system. Rodents are acclimated to the room 30 minutes before the start of testing. The following parameters are captured: Horizontal distance travelled, overall ambulatory time, and ambulatory counts. Vertical activity (time and counts), Time in the Center vs. Periphery data are reported in 5-minute bins as well as total time.

PTSD symptoms = conditions: clinical case series of 21 individuals; cited from earlier work
open field test (OFT) [6] = conditions: 5, 10, 20 mg/kg, SC, rats; Stefkovi et al. 2017; cited from earlier work
[7] = XRPD analysis of pre- and post-DVS samples (form stability); assay type: physicochemical; conditions: after DVS 5-95-5% RH
Method: Two lots of methylone HCl samples were submitted to evaluate the stability of the solid forms under various humidity conditions. Dynamic vapor sorption (DVS) analysis was performed to evaluate the kinetic hygroscopicity and assess if variable humidity XRPD would be necessary, as well as to determine the appropriate humidity condition(s) for such XRPD analysis. Both pre- and post-DVS samples were analyzed by conventional XRPD for solid form confirmation or any potential form changes.
Each sample was prepared in a silicon low background holder using light manual pressure to keep the sample surface flat and level with the reference surface of the sample holder. The single crystal Si low background holder has a circular recess (10 mm diameter and about 0.2 mm depth) that holds the sample. The Rigaku Smart-Lab diffraction system used was configured for Bragg-Brentano reflection geometry using a line source X-ray beam. The Bragg-Brentano geometry was controlled by passive divergence and receiving slits with the sample itself acting as the focusing component for the optics.

In the case of `CNC(C)C(=O)c1ccc2c(c1)OCO2` (racemic) [Racemic methylone, methylone], the pIC50 [1] was 5.51, the pKi [1] was 5.84 and the pEC50 (NET) was 6.48. For the same compound, the “reduction of immobility compared to vehicle treated controls” value [2] was ~100%.
In the case of `CNC(C)Cc1ccc2c(c1)OCO2` (centres unmarked) [MDMA, 3,4-methylenedioxymethamphetamine, reference compound], the “systolic and diastolic blood pressure” value [3] is listed as “significant increase”.
`CNC(C)C(=O)c1ccc2c(c1)OCO2` (centres unmarked) [Methylone, methylone] showed an AUC0-last ([4]; Group 1 (IV), 5 mg/kg) of 1200 ± 88.2 ng·h/mL, a C0 ([4]; Group 1 (IV), 5 mg/kg) of 3018 ± 666 ng/mL and a Cl ([4]; Group 1 (IV), 5 mg/kg) of 68.3 ± 5.40 mL/min/kg. The MRT0-last ([4]; Group 1 (IV), 5 mg/kg) was 0.439 ± 0.026 h, the Vdss ([4]; Group 1 (IV), 5 mg/kg) was 1.98 ± 0.230 L/kg and the AUC0-last ([4]; Group 2 (PO), 15 mg/kg) was 2765 ± 657 ng·h/mL. It also gave an MRT0-last ([4]; Group 2 (PO), 15 mg/kg) of 2.99 ± 0.467 h, a T1/2 ([4]; Group 2 (PO), 15 mg/kg) of 3.23 ± 1.99 h and a Tmax ([4]; Group 2 (PO), 15 mg/kg) of 79.8 ± 34.6 min. For the same compound, the Cmax ([4]; Group 2 (PO), 15 mg/kg, plasma) was 678 ± 243 ng/mL, the AUC0-last ([4]; Group 3 (IP), 15 mg/kg) was 4305 ± 1179 ng·h/mL and the MRT0-last ([4]; Group 3 (IP), 15 mg/kg) was 1.07 ± 0.211 h. The Cmax ([4]; Group 3 (IP), 15 mg/kg, plasma) was 4230 ± 514 ng/mL, the Tmax ([4]; male, Sprague Dawley, rat, plasma, Group 3 (IP), 15 mg/kg, read-out: Tmax) was 15 min and the “fear extinction recall (freezing time during the first cue on day 3) vs saline” value (mouse model of PTSD) was “significantly improves fear extinction recall”. The “locomotor changes on day 3” value (mouse model of PTSD) was “No locomotor changes”, the “fear extinction recall (freezing time during the first cue on day 3) vs saline” value (mouse model of PTSD; listed as methylone) was “significantly reduced” and the “locomotor activity in the OFT” value (open field test (OFT) [5]) was “increases locomotor activity”. The “time in the center vs the periphery in the OFT” value (open field test (OFT) [5]) was “reduces time spent in the center vs the periphery”, the “patients with improved PTSD symptoms” value (PTSD symptoms) was 81% and the “thigmotaxis (time spent hugging the perimeter of the open field)” value (open field test (OFT) [6]) was “reduce thigmotaxis”. For the same compound, the heart rate [3] was “increase in heart rate” and the “systolic and diastolic blood pressure” value [3] was “significant increase”.
For `CNC(C)C(=O)c1ccc2c(c1)OCO2.Cl` [lot KRR-R&D-2022-II-58, methylone HCl], the “form changes, post-DVS vs pre-DVS XRPD pattern” value [7] was “No form changes”.
